Source: patent US8772504B2, “Substituted benzoxazole, benzimidazole, oxazolopyridine and imidazopyridine derivatives as gamma secretase modulators” (Janssen Pharmaceuticals, Inc., priority 2009, dated 2014)

Legend:
[1] = system: Notch-processing activity of the γ-secretase-complex; assay: Notch cell-free assay (NICD production from recombinant Notch substrate N99); format: biochemical, mouse; conditions: 1 μM test compound, 0.3-0.5 μM Notch substrate, 37° C. for 6 to 22 h, western blotting
Method: The Notch transmembrane domain is cleaved by gamma secretase to release
Notch Intracellular C-terminal Domain (NICD).
To monitor the effect of compounds on NICD production, a recombinant Notch substrate (N99) was prepared. The Notch substrate, comprised of mouse Notch fragment (V1711-E1809), an N-terminal methionine and a C-terminal FLAG sequence ([…]), was expressed in E. coli and purified on a column containing an anti-FLAG M2 affinity matrix.
A typical Notch cell-free assay consisted of 0.3-0.5 μM Notch substrate, an enriched preparation of γ secretase and 1 μM of a test compound (compounds 8, 15, 92, 108, 114 and 130 of the present invention). Controls included a γ secretase inhibitor (GSI), such as (2S)—N-[2-(3,5-difluorophenyeacetyl]-L-alanyl-2-phenyl-glycine 1,1-dimethylethyl ester (DAPT) or (2S)-2-hydroxy-3-methyl-N-[(1S)-1-methyl-2-oxo-2-[[(1S)-2,3,4,5-tetrahydro-3-methyl-2-oxo-1H-3-benzazepin-1-yl]amino]ethyl]-butanamide (Semagacestat), and DMSO, the final concentration of DMSO being 1%. Recombinant Notch substrate was pre-treated with 17 μM DTT (1,4-dithiothreitol) and 0.02% SDS (Sodium Dodecyl Sulfate) and heated at 65° C. for 10 min. The mixture of substrate, gamma secretase and compound/DMSO was incubated at 37° C. for 6 to 22 hours (h). 6 h incubation was sufficient to produce the maximal amount of NICD and the cleaved product remained stable for an additional 16 h. Reaction products were processed for SDS PAGE (Sodium Dodecyl Sulfate-Poly Acrylamide Gel Electrophoresis) and western blotting. Blots were probed with an anti-Flag M2 antibody, followed by LI-COR infrared secondary antibody, and analyzed with the Odyssey Infrared Imaging System (LI-COR® Biosciences).

[2] = system: T1, Notch-processing activity of the γ-secretase-complex; assay: Notch cell-based assay (N2-CHO/DL-CHO co-culture, Dual-Glo luciferase); parameters: species or system mouse; conditions: N2-CHO/DL-CHO co-culture 16 h; read-out: average IC50 Notch cell-based assay (luciferase readout)
T1 construct: average IC50 Notch cell-based assay (luciferase readout); other: N2-CHO/DL-CHO co-culture 16 h; five-point curve 3 μM-
From the text: The Notch cell-based assay was based on the interaction of Notch and its ligand in a co-culture system and utilized the Dual-Glo Luciferase Assay System (Promega) to monitor NICD production. 2 stable cell lines, N2-CHO and DL-CHO, were established to express full-length mouse Notch2 and Delta respectively. Cells that expressed mouse Notch were also transfected with 2 plasmids, pTP1-Luc and pCMV-RLuc, to express firefly and Renilla luciferase. Expression of firefly luciferase was under the control of TP1 promoter that responded to NICD activation.
N2-CHO cells were seeded at 1×10^5/well in 24-well plates the day before transfection. On the second day, cells were double transfected with 3 μg/well pTP1-Luc (expressing firefly luciferase) and 0.3 ng/well pCMV-RLuc (expressing Renilla luciferase). After 6 h incubation, transfected N2-CHO cells were washed and DL-CHO cells (2×10^5 cells/well) were added.
Compounds were pre-mixed with DL-CHO cell suspension in a five-point curve. Typically, compound treatment was performed in duplicate with a serial 1:10 dilution (3 μM-0.3 nM) in DMSO. The final concentration of DMSO in a given culture was 1%. Controls included non-transfected cells and transfected cells treated with a GSI or DMSO only. Luciferase assays were performed after 16 h co-culture and compound treatment.
The luciferase assay was carried out according to manufacture's instructions. Briefly, cells were washed with PBS (Phosphate Buffered Saline), lysed with Passive Lysis Buffer (Promega), and incubated at room temperature for 20 min. Lysates were mixed with Dual-Glo Luciferase Reagent and the firefly luciferase activity was measured by reading the luminescence signal in the EnVision 2101 Multilabel reader. Dual-Glo Stop & Glo Reagent was then added to each well and the Renilla luciferase signal was measured.

| IC50 [2] | SMILES | effect on the Notch-processing activity of the γ-secretase-complex (production of NICD) [1] |
| --- | --- | --- |
| 45 nM | CC(NC(=O)Cc1cc(F)cc(F)c1)C(=O)NC(C(=O)OC(C)(C)C)c1ccccc1 [DAPT, (2S)—N-[2-(3,5-difluorophenyeacetyl]-L-alanyl-2-phenyl-glycine 1,1-dimethylethyl ester, reference compound] | blocked |
| 40 nM | CC(C)[C@H](O)C(=O)N[C@@H](C)C(=O)N[C@@H]1C(=O)N(C)CCc2ccccc21 [Semagacestat, (2S)-2-hydroxy-3-methyl-N-[(1S)-1-methyl-2-oxo-2-[[(1S)-2,3,4,5-tetrahydro-3-methyl-2-oxo-1H-3-benzazepin-1-yl]amino]ethyl]-butanamide, reference compound] | blocked |
